Data reported in ChEMBL document CHEMBL3396964, “SAH derived potent and selective EZH2 inhibitors” (Bioorg Med Chem Lett, 2015).
Activity calls are given as the source filed them. No cut-off for these calls is given here.

Assays:
[1] = target: T1, Histone-lysine N-methyltransferase EZH1 (Homo sapiens, UniProt Q92800); test: Inhibition of EZH1 (unknown origin) by HMT assay
T1 sequence (Q92800 whole entry): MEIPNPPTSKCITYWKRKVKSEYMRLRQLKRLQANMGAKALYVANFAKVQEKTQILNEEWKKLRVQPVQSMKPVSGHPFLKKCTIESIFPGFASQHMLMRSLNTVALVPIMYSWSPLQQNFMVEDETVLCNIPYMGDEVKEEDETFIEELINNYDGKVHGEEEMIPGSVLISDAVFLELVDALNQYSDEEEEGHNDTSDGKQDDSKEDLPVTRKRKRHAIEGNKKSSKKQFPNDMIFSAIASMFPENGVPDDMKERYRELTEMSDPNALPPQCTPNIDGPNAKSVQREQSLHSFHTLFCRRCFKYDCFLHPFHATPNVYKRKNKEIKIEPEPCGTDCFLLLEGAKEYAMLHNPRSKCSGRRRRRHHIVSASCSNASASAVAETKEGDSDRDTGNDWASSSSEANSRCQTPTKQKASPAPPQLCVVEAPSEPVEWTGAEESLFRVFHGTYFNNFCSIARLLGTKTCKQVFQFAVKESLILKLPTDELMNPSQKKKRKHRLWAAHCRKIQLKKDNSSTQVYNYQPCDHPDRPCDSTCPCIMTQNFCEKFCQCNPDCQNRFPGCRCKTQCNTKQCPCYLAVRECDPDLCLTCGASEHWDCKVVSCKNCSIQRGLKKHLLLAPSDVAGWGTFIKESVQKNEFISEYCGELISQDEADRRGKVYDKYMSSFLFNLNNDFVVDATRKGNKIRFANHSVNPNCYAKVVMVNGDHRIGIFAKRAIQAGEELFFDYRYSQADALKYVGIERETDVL

[2] = target: T2, Histone-lysine N-methyltransferase SUV39H1 (Homo sapiens, UniProt O43463); test: Inhibition of SUV39H1 (unknown origin) by HMT assay
T2 sequence (O43463 whole entry): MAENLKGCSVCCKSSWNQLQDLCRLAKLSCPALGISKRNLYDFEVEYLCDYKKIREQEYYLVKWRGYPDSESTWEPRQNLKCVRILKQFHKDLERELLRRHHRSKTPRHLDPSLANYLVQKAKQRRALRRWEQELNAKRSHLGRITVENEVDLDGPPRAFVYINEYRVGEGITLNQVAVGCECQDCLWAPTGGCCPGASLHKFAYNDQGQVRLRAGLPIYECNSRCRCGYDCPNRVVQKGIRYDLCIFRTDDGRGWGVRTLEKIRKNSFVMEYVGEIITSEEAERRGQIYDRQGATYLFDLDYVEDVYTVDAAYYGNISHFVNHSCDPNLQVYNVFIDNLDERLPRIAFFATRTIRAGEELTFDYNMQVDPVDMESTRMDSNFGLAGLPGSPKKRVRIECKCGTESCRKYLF

[3] = target: Histone-lysine N-methyltransferase SUV39H2 (Homo sapiens, UniProt Q9H5I1); test: Inhibition of SUV39H2 (unknown origin) at 10 uM by HMT assay
[4] = Permeability across MDCK2 cells; assay type: ADME, cell-based, Canis lupus familiaris, MDCK-II; conditions: dog, MDCK; read-out: permeability
[5] = target: Histone-lysine N-methyltransferase KMT5C (Homo sapiens, UniProt Q86Y97); conditions: 10 uM
Description: Inhibition of SUV420H2 (unknown origin) at 10 uM by HMT assay

[6] = target: T3, Histone-lysine N-methyltransferase EHMT2 (Homo sapiens) (UniProt Q96KQ7); test: Inhibition of G9a (unknown origin) at 10 uM by HMT assay
T3 sequence (whole entry): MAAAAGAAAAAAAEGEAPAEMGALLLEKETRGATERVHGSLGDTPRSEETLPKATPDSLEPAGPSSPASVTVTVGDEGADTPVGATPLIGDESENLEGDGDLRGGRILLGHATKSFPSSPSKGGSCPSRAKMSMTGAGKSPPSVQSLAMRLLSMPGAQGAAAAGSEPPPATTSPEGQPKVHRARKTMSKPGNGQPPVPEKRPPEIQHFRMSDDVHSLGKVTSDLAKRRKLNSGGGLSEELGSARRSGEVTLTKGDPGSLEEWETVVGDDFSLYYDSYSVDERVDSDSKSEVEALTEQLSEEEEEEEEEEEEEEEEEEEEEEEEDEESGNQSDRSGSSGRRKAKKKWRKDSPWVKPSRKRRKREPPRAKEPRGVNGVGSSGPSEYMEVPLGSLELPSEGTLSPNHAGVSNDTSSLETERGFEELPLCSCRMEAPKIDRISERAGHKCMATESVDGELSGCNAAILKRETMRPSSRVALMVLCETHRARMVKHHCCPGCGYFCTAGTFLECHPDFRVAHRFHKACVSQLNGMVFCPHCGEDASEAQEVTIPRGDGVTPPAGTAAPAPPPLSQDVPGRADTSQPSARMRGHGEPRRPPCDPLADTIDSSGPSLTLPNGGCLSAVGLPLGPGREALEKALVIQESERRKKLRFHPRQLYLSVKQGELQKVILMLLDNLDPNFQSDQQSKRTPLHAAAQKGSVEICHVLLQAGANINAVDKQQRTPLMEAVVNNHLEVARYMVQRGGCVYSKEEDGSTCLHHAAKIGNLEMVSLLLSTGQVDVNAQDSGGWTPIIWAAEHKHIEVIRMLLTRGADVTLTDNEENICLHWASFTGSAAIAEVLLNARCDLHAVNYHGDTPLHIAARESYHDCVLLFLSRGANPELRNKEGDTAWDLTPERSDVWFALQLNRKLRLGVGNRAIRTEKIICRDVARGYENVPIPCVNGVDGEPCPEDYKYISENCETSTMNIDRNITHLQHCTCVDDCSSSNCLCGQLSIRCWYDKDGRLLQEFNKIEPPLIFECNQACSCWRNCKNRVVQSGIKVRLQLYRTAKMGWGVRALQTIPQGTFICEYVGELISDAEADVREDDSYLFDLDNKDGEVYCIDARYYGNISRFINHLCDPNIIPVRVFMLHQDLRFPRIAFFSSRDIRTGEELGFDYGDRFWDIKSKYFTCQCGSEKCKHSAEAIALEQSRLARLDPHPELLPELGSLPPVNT

[7] = target: Histone-lysine N-methyltransferase EZH2 (Homo sapiens) (UniProt Q15910); test: Inhibition of EZH2 (unknown origin) at 100 uM by cell-based assay
[8] = target: N-lysine methyltransferase SMYD2 (Homo sapiens, UniProt Q9NRG4); test: Inhibition of SMYD2 (unknown origin) by HMT assay
[9] = target: T4, Histone-lysine N-methyltransferase EHMT2 (Homo sapiens, UniProt Q96KQ7); test: Inhibition of G9a (unknown origin) by HMT assay
T4 sequence (Q96KQ7 whole entry): T3 sequence (whole entry)

Chain of Histone-lysine N-methyltransferase EZH2 (Homo sapiens) (Q15910 whole entry, looked up): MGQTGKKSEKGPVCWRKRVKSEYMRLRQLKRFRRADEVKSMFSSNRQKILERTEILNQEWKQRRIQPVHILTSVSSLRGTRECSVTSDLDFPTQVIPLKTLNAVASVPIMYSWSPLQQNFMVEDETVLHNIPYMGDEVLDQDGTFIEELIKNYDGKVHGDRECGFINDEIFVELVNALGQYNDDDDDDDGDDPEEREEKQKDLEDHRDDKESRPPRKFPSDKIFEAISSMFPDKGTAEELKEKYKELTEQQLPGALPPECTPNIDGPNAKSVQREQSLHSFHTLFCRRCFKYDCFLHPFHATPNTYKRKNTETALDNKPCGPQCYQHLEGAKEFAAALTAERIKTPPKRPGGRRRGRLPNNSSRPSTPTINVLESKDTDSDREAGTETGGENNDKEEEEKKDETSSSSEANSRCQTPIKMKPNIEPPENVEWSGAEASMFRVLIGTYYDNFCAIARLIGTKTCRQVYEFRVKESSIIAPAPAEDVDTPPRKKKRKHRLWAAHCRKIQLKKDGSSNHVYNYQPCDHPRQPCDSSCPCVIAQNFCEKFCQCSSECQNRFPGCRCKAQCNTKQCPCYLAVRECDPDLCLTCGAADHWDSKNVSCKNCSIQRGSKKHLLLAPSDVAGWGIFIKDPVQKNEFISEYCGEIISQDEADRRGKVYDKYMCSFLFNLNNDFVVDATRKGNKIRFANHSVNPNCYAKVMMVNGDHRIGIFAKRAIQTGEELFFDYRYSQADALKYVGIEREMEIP
Chain of N-lysine methyltransferase SMYD2 (Q9NRG4 whole entry): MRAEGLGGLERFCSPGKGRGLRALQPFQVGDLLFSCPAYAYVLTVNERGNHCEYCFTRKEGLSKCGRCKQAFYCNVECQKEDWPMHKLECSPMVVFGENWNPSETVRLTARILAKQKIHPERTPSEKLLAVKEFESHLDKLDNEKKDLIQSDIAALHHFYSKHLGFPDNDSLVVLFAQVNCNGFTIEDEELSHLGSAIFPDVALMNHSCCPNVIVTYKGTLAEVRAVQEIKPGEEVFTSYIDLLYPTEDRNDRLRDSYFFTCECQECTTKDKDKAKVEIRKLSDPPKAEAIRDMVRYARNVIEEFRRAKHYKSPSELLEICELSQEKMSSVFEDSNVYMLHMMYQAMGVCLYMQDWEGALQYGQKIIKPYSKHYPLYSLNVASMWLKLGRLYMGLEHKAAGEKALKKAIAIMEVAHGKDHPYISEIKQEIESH
Chain of Histone-lysine N-methyltransferase KMT5C (Q86Y97 whole entry, looked up): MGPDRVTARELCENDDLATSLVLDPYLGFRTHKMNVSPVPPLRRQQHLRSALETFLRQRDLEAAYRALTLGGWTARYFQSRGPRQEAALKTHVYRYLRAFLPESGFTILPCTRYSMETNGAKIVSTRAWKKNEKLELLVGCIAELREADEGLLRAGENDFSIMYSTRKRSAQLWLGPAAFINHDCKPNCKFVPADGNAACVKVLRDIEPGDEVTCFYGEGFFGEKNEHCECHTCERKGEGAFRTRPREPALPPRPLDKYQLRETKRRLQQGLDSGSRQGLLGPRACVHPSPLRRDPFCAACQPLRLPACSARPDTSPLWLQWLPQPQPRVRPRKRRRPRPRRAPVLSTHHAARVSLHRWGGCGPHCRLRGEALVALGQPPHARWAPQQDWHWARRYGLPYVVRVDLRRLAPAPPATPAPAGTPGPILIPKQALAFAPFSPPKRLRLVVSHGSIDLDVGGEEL
Chain of Histone-lysine N-methyltransferase SUV39H2 (Q9H5I1 whole entry): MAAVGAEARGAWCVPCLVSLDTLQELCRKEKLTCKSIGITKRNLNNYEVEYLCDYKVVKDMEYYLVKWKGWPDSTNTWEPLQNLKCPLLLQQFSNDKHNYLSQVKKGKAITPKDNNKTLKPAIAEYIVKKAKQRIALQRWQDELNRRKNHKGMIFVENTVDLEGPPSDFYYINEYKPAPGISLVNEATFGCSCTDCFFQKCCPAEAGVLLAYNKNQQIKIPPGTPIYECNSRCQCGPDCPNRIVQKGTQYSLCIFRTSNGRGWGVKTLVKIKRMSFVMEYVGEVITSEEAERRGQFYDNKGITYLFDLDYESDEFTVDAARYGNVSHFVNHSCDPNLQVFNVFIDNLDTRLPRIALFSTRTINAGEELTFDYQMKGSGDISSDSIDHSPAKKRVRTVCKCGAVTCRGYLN

## Nc1ncnc2c1ncn2[C@@H]1O[C@H](CSCC[C@H](N)C(=O)NCc2cc(-c3ccccc3)[nH]n2)[C@@H](O)[C@H]1O
[1]
  IC50: 2.1 µM
[2]
  IC50: 9.5 µM
[3]
  inhibition: 20%
[4]
  Papp: 1 ×10⁻⁶ cm/s
[5]
  inhibition: inactive
[6]
  inhibition: 20%
[7]
  inhibition: inactive
[8]
  IC50: > 100 µM
[9]
  IC50: > 100 µM
